Results taken from patent publication US20220265817A1, “THERAPEUTIC COMPOSITIONS AND METHODS FOR TREATING HEPATITIS B” (priority 2017, published 2022).

Columns and labels:
hepatitis B virus (HBV) [1] = test: Mouse model of HBV (pHBV1.3 hydrodynamic injection), serum HBV DNA quantitative PCR; assay type: in vivo, NOD.CB17-Prkdc^scid/J mice
Description: On Day −7, 10 micrograms of the plasmid pHBV1.3 (as per Guidotti, L., et al., Journal of Virology, 1995, 69(10): 6158-6169) was administered to NOD.CB17-Prkdc^scid/J mice via hydrodynamic injection (HDI; rapid 1.6 mL injection into the tail vein). […] As a readout of the anti-HBV effect of various treatments, serum HBV DNA concentration in mice was measured from total extracted DNA using a quantitative PCR assay (primer/probe sequences from Tanaka, Y., et al., Journal of Medical Virology, 2004, 72: 223-229).
Animals were treated with Compound 3 as follows: Starting on Day 0, a 50 mg/kg or 100 mg/kg dosage of Compound 3 was administered orally to animals on a twice-daily frequency for a total of fourteen doses between Days 0 and 7. Compound 3 was dissolved in a co-solvent formulation for administration. Negative control animals were administered either the co-solvent formulation alone, or saline. Animals were treated with lipid nanoparticle (LNP)-encapsulated HBV-targeting siRNAs as follows: On Day 0, an amount of test article equivalent to 0.1 mg/kg siRNA was administered intravenously.
The effect of these treatments was determined by collecting blood on Days 0 (pre-treatment), 4 & 7 and analyzing it for serum HBV DNA content.
Animals were treated with Compound 3 as follows: Starting on Day 0, a 100 mg/kg dosage of Compound 3 was administered orally to animals on a twice-daily frequency for a total of fourteen doses between Days 0 and 7. Compound 3 was dissolved in a co-solvent formulation for administration. Negative control animals were administered either the co-solvent formulation alone, or saline. Animals were treated with ETV as follows: Starting on Day 0, either a 100 ng/kg or a 300 ng/kg dosage of ETV was administered orally to animals on a once-daily frequency for a total of seven doses between Days 0 and 6. ETV was dissolved in DMSO to 2 mg/mL and then diluted in saline for administration.
The effect of these treatments was determined by collecting blood on Days 0 (pre-treatment), 4 & 7 and analyzing it for serum HBV DNA content. Samples with Ct values below the lower limit of quantitation (LLOQ) were set to one-half LLOQ for calculation of group means.

hepatitis B virus (HBV) [2] = test: Humanized liver chimeric mouse model of chronic HBV infection, serum HBsAg by EIA; assay type: in vivo; conditions: mean ± SEM
Description: This work was conducted in a well-established humanized liver chimeric mouse model of chronic hepatitis B virus (HBV) infection (Tsuge et al., Hepatology, 42(5), 1046-54 (2005)). A persistent level of HBV infection was established in the animals prior to the treatment phase which started at Day 0.
The anti-HBV effects were assessed based on serum HBsAg levels using the GS HBsAg EIA 3.0 enzyme linked immunosorbent assay kit from Bio-Rad Laboratories as per manufacturer instructions; and serum HBV DNA levels measured from total extracted DNA using a quantitative PCR assay (primer/probe sequences from Tanaka et al., Journal of Medical Virology, 72, 223-229 (2004)).

[3] = Day 21, Compound 3 oral 100 mg/kg twice daily, SIRNA-NP iv 3 mg/kg every 2 weeks, ETV oral 1.2 μg/kg daily, pegIFN α-2a sc 30 μg/kg twice a week

SMILES | Serum HBV DNA, % of individual pre-treatment baseline (Day 0) (hepatitis B virus (HBV) [1]; Example 2, Day 4, Compound 3 50 mg/kg oral twice daily, mean ± SEM) | Serum HBV DNA, % of individual pre-treatment baseline (Day 0) (hepatitis B virus (HBV) [1]; Example 2, Day 4, Compound 3 100 mg/kg oral twice daily) | Serum HBV DNA, % of individual pre-treatment baseline (Day 0) (hepatitis B virus (HBV) [1]; Example 2, Day 7, Compound 3 50 mg/kg oral twice daily) | Serum HBV DNA, % of individual pre-treatment baseline (Day 0) (hepatitis B virus (HBV) [1]; Example 2, Day 7, Compound 3 100 mg/kg oral twice daily) | Serum HBV DNA, % of individual pre-treatment baseline (Day 0) (hepatitis B virus (HBV) [1]; Example 3, Day 4, Compound 3 100 mg/kg oral twice daily, mean ± SEM) | Serum HBV DNA, % of individual pre-treatment baseline (Day 0) (hepatitis B virus (HBV) [1]; Example 3, Day 7, Compound 3 100 mg/kg oral twice daily) | Serum HBsAg (hepatitis B virus (HBV) [2]; Day 0 (start of treatment)) | Serum HBsAg (hepatitis B virus (HBV) [2]; [3]) | Serum HBV DNA, % of individual pre-treatment baseline (Day 0) (hepatitis B virus (HBV) [1]; Example 3, Day 4, ETV 100 ng/kg oral once daily) | Serum HBV DNA, % of individual pre-treatment baseline (Day 0) (hepatitis B virus (HBV) [1]; Example 3, Day 4, ETV 300 ng/kg oral once daily) | Serum HBV DNA, % of individual pre-treatment baseline (Day 0) (hepatitis B virus (HBV) [1]; Example 3, Day 7, ETV 100 ng/kg oral once daily) | Serum HBV DNA, % of individual pre-treatment baseline (Day 0) (hepatitis B virus (HBV) [1]; Example 3, Day 7, ETV 300 ng/kg oral once daily)
CC[C@@H](C)NS(=O)(=O)c1ccc(F)c(C(=O)Nc2ccc(F)c(F)c2)c1 [Compound 3] | 13 ± 4% | 8.6 ± 1.5% | 33 ± 9% | 12 ± 5% | 9.3 ± 2.5% | 1.2 ± 0.3% | 2965 ± 616 IU/mL | 4158 ± 355 IU/mL | – | – | – | –
C=C1[C@H](CO)[C@@H](O)C[C@@H]1n1cnc2c(=O)[nH]c(N)nc21 [Entecavir] | – | – | – | – | – | – | 2649 ± 282 IU/mL | 2975 ± 629 IU/mL | 21 ± 5% | 1.6 ± 0.3% | 3.5 ± 0.7% | 0.88 ± 0.31%
